Where two headings read alike, the source gives them in different places. Ends that are not written are not given here.
What was measured:
insulin receptor = insulin receptor (Homo sapiens, UniProt P06213); test: Insulin receptor competition binding assay (scintillation proximity); parameters: expressed in transfected cells; plasma membrane fragments
[1] = target: T1, type A insulin receptor (IR-A) (Homo sapiens, UniProt P06213); test: Receptor kinase activity (phosphorylation) assay, type A insulin receptor; type: cell-based; conditions: for % Insulin Activity IR-A: Table 12
T1 construct: expressed in transfected cells; host or cells: HEK293

[2] = target: T2, type B insulin receptor (IR-B) (Homo sapiens, UniProt P06213); test: Receptor kinase activity (phosphorylation) assay, type B insulin receptor; type: cell-based; conditions: for % Insulin Activity IR-B: Table 12
T2 construct: expressed in transfected cells; host or cells: HEK293

IGF-1 receptor = IGF-1 receptor (Homo sapiens, UniProt P08069); test: Receptor kinase activity (phosphorylation) assay, IGF-1 receptor; type: cell-based; parameters: expressed in transfected cells; host or cells: HEK293; conditions: for % Insulin Activity IGF-1 R: Table 12

CC[C@H](C)[C@H](NC(=O)CN)C(=O)N[C@H](C(=O)N[C@@H](CC(=O)O)C(=O)N[C@@H](CCC(=O)O)C(=O)N[C@H]1CSSC[C@@H]2NC(=O)[C@H](CO)NC(=O)[C@H](C)NC(=O)[C@H](Cc3c[nH]cn3)NC(=O)[C@H](CSSC[C@H](NC(=O)[C@H](CC(C)C)NC(=O)[C@H](Cc3c[nH]cn3)NC(=O)[C@H](CCC(=O)O)NC(=O)[C@@H]3CCCN3C(=O)CN)C(=O)NCC(=O)N[C@@H](C)C(=O)N[C@@H](CC(=O)O)C(=O)N[C@@H](CC(C)C)C(=O)N[C@@H](C(C)C)C(=O)N[C@@H](CC(=O)O)C(=O)N[C@@H](C)C(=O)N[C@@H](CC(C)C)C(=O)N[C@@H](Cc3ccc(O)cc3)C(=O)N[C@@H](CC(C)C)C(=O)N[C@@H](C(C)C)C(=O)N[C@H](C(=O)NCC(=O)N[C@@H](CC(=O)O)C(=O)N[C@@H](C)C(=O)NCC(=O)N[C@@H](Cc3ccccc3)C(=O)N[C@@H](Cc3ccc(O)cc3)C(N)=O)CSSC[C@@H](C(=O)N[C@@H](CC(N)=O)C(=O)O)NC(=O)[C@H](Cc3ccc(O)cc3)NC(=O)[C@H](CC[S+](C)[O-])NC(=O)[C@H](CCC(=O)O)NC(=O)[C@H](CC(C)C)NC(=O)[C@H](CCCNC(=N)N)NC(=O)[C@H](CCCNC(=N)N)NC(=O)[C@H](CC(C)C)NC(=O)[C@H](CC(=O)O)NC2=O)NC1=O)C(C)C (stereo partly shown)
% insulin (in test) (insulin receptor): 400.7%

GE5W-B^1(A5H10Y16L17)25-C^1-A^1(H8N18N21) [GE5W-Ala,B5]
IR-A [1]: 8.6%
IR-B [2]: 2.3%
IGF-1 R (IGF-1 receptor): 0.3%

B^1(H5,10Y16L17R29)30-C^1des9-12-A^1(H8,N18,21) (GPEHLCGAHLVDALYLVCGDRGFYFNKRTGYGSSSRRGIVDECCHRSCDLRRLENYCN) [MIU-43]
IR-A ([1]; Table 14): 97.5%
IR-B ([2]; Table 14): 16.7%
IGF-1 R (IGF-1 receptor; Table 14): 14.2%

B2, C8-PEG10K di-PEGylated MIU-35 (GPEHLCGAELVDALYLVCGDRGFYGYGSSSRK(PEG 10 kDa)APQTGIVDECCFRSCDLRRLENYCN; not fully specified (N-terminus); ends and bridges not checked; also: PEG10K at B2) [MIU-67]
% Insulin Activity IR-A [1]: 0.2%
% Insulin Activity IR-B [2]: 0.1%
% Insulin Activity IGF-1 R (IGF-1 receptor): <0.1%

CC[C@H](C)[C@H](NC(=O)CNC(=O)[C@@H]1CCCN1C(=O)[C@H](C)N)C(=O)N[C@H](C(=O)N[C@@H](CC(=O)O)C(=O)N[C@@H](CCC(=O)O)C(=O)N[C@H]1CSSC[C@@H]2NC(=O)[C@H](CO)NC(=O)[C@H](CCCNC(=N)N)NC(=O)[C@H](Cc3ccccc3)NC(=O)[C@H](CSSC[C@H](NC(=O)[C@H](CC(C)C)NC(=O)[C@@H](NC(=O)[C@H](CCC(=O)O)NC(=O)[C@@H]3CCCN3C(=O)CN)[C@@H](C)O)C(=O)NCC(=O)N[C@@H](C)C(=O)N[C@@H](CCC(=O)O)C(=O)N[C@@H](CC(C)C)C(=O)N[C@@H](C(C)C)C(=O)N[C@@H](CC(=O)O)C(=O)N[C@@H](C)C(=O)N[C@@H](CC(C)C)C(=O)N[C@@H](Cc3ccc(O)cc3)C(=O)N[C@@H](CC(C)C)C(=O)N[C@@H](C(C)C)C(=O)N[C@H](C(=O)NCC(=O)N[C@@H](CC(=O)O)C(=O)N[C@@H](CCCNC(=N)N)C(=O)NCC(=O)N[C@@H](Cc3ccccc3)C(=O)N[C@@H](Cc3ccc(O)cc3)C(=O)N[C@@H](Cc3ccccc3)C(=O)N[C@@H](CC(N)=O)C(=O)N[C@@H](CCCCN)C(=O)N3CCC[C@H]3C(=O)N[C@H](C(N)=O)[C@@H](C)O)CSSC[C@@H](C(=O)N[C@@H](C)C(N)=O)NC(=O)[C@H](Cc3ccc(O)cc3)NC(=O)[C@H](CCSC)NC(=O)[C@H](CCC(=O)O)NC(=O)[C@H](CC(C)C)NC(=O)[C@H](CCCNC(=N)N)NC(=O)[C@H](CCCNC(=N)N)NC(=O)[C@H](CC(C)C)NC(=O)[C@H](CC(=O)O)NC2=O)NC1=O)C(C)C [IGF1 (Y^B16L^B17) (AlaPro)^A-1,0]
% of Insulin Activity (insulin receptor; Table 8): 37.12%

CC[C@H](C)[C@H](NC(=O)CN)C(=O)N[C@H](C(=O)N[C@@H](CC(=O)O)C(=O)N[C@@H](CCC(=O)O)C(=O)N[C@H]1CSSC[C@@H]2NC(=O)[C@H](CO)NC(=O)[C@H](CCCNC(=N)N)NC(=O)[C@H](Cc3ccccc3)NC(=O)[C@H](CSSC[C@H](NC(=O)[C@H](CC(C)C)NC(=O)[C@H](Cc3c[nH]cn3)NC(=O)[C@H](CCC(=O)O)NC(=O)[C@@H]3CCCN3C(=O)CN)C(=O)NCC(=O)N[C@@H](C)C(=O)N[C@@H](CC(=O)O)C(=O)N[C@@H](CC(C)C)C(=O)N[C@@H](C(C)C)C(=O)N[C@@H](CC(=O)O)C(=O)N[C@@H](C)C(=O)N[C@@H](CC(C)C)C(=O)N[C@@H](Cc3ccc(O)cc3)C(=O)N[C@@H](CC(C)C)C(=O)N[C@@H](C(C)C)C(=O)N[C@H](C(=O)NCC(=O)N[C@@H](CC(=O)O)C(=O)N[C@@H](CCCNC(=N)N)C(=O)NCC(=O)N[C@@H](Cc3ccccc3)C(=O)N[C@@H](Cc3ccc(O)cc3)C(N)=O)CSSC[C@@H](C(=O)N[C@@H](C)C(N)=O)NC(=O)[C@H](Cc3ccc(O)cc3)NC(=O)[C@H](CC[S+](C)[O-])NC(=O)[C@H](CCC(=O)O)NC(=O)[C@H](CC(C)C)NC(=O)[C@H](CCCNC(=N)N)NC(=O)[C@H](CCCNC(=N)N)NC(=O)[C@H](CC(C)C)NC(=O)[C@H](CC(=O)O)NC2=O)NC1=O)C(C)C (stereo partly shown) [IGF-1 A:B(H5D10Y16L17) (S═O) DPI]
% insulin (in test) (insulin receptor; Table 9, Insulin Receptor): 316.0%

B2, A14-PEG10K di-PEGylated MIU-35 (GPEHLCGAELVDALYLVCGDRGFYGYGSSSRKAPQTGIVDECCFRSCDLK(PEG 10 kDa)RLENYCN; not fully specified (N-terminus); ends and bridges not checked; also: PEG10K at B2) [MIU-69]
% Insulin Activity IR-A [1]: 1.0%
% Insulin Activity IR-B [2]: 0.5%
% Insulin Activity IGF-1 R (IGF-1 receptor): <0.1%

CC[C@H](C)[C@H](NC(=O)CN)C(=O)N[C@H](C(=O)N[C@@H](CC(=O)O)C(=O)N[C@@H](CCC(=O)O)C(=O)N[C@H]1CSSC[C@@H]2NC(=O)[C@H](CO)NC(=O)[C@H](CCCNC(=N)N)NC(=O)[C@H](Cc3ccccc3)NC(=O)[C@H](CSSC[C@H](NC(=O)[C@H](CC(C)C)NC(=O)[C@@H](NC(=O)[C@H](CCC(=O)O)NC(=O)[C@@H]3CCCN3C(=O)CN)[C@@H](C)O)C(=O)NCC(=O)N[C@@H](C)C(=O)N[C@@H](CCC(=O)O)C(=O)N[C@@H](CC(C)C)C(=O)N[C@@H](C(C)C)C(=O)N[C@@H](CC(=O)O)C(=O)N[C@@H](C)C(=O)N[C@@H](CC(C)C)C(=O)N[C@@H](Cc3ccc(O)cc3)C(=O)N[C@@H](CC(C)C)C(=O)N[C@@H](C(C)C)C(=O)N[C@H](C(=O)NCC(=O)N[C@@H](CC(=O)O)C(=O)N[C@@H](CCCNC(=N)N)C(=O)NCC(=O)N[C@@H](Cc3ccccc3)C(=O)N[C@@H](Cc3ccc(O)cc3)C(=O)N[C@@H](Cc3ccccc3)C(=O)N[C@@H](CC(N)=O)C(=O)N[C@@H](CCCCN)C(=O)N3CCC[C@H]3C(=O)N[C@H](C(N)=O)[C@@H](C)O)CSSC[C@@H](C(=O)N[C@@H](C)C(N)=O)NC(=O)[C@H](Cc3ccc(N)cc3)NC(=O)[C@H](CCSC)NC(=O)[C@H](CCC(=O)O)NC(=O)[C@H](CC(C)C)NC(=O)[C@H](CCCNC(=N)N)NC(=O)[C@H](CCCNC(=N)N)NC(=O)[C@H](CC(C)C)NC(=O)[C@H](CC(=O)O)NC2=O)NC1=O)C(C)C [IGF1 (Y^B16L^B17) (p-NH2—F)^A19 amide]
% of Insulin Activity (insulin receptor; Table 7): 22%

CC[C@H](C)[C@H](NC(=O)CN)C(=O)N[C@H](C(=O)N[C@@H](CC(=O)O)C(=O)N[C@@H](CCC(=O)O)C(=O)N[C@H]1CSSC[C@@H]2NC(=O)[C@H](CO)NC(=O)[C@H](CCCNC(=N)N)NC(=O)[C@H](Cc3ccccc3)NC(=O)[C@H](CSSC[C@H](NC(=O)[C@H](CC(C)C)NC(=O)[C@@H](NC(=O)[C@H](CCC(=O)O)NC(=O)[C@@H]3CCCN3C(=O)CN)[C@@H](C)O)C(=O)NCC(=O)N[C@@H](C)C(=O)N[C@@H](CCC(=O)O)C(=O)N[C@@H](CC(C)C)C(=O)N[C@@H](C(C)C)C(=O)N[C@@H](CC(=O)O)C(=O)N[C@@H](C)C(=O)N[C@@H](CC(C)C)C(=O)N[C@@H](Cc3ccc(O)cc3)C(=O)N[C@@H](CC(C)C)C(=O)N[C@@H](C(C)C)C(=O)N[C@H](C(=O)NCC(=O)N[C@@H](CC(=O)O)C(=O)N[C@@H](CCCNC(=N)N)C(=O)NCC(=O)N[C@@H](Cc3ccccc3)C(=O)N[C@@H](Cc3ccc(O)cc3)C(=O)N[C@@H](Cc3ccccc3)C(=O)N[C@@H](CC(N)=O)C(=O)N[C@@H](CCCCN)C(=O)N3CCC[C@H]3C(=O)N[C@H](C(N)=O)[C@@H](C)O)CSSC[C@@H](C(=O)N[C@@H](C)C(N)=O)NC(=O)[C@H](Cc3ccc(O)cc3)NC(=O)[C@H](CCSC)NC(=O)[C@H](CCC(=O)O)NC(=O)[C@H](CC(C)C)NC(=O)[C@H](CCCNC(=N)N)NC(=O)[C@H](CCCNC(=N)N)NC(=O)[C@H](CC(C)C)NC(=O)[C@H](CC(=O)O)NC2=O)NC1=O)C(C)C [IGF1 (Y^B16L^B17)]
% of Insulin Activity (insulin receptor; Table 6): 262%

B^1(A5H10Y16L17)25-C^1-A^1(H8N18N21) [Ala,B5]
IR-B [2]: 5.7%
IGF-1 R (IGF-1 receptor): 2.5%

B^1(H5,10Y16L17A24)25-C^1-A^1(H8N18,N21) [Ala,B24]
IR-A [1]: 0.1%
IR-B [2]: 0.4%
IGF-1 R (IGF-1 receptor): 0.3%

B2, B22-PEG10K di-PEGylated MIU-35 (GPEHLCGAELVDALYLVCGDK(PEG 10 kDa)GFYGYGSSSRKAPQTGIVDECCFRSCDLRRLENYCN; not fully specified (N-terminus); ends and bridges not checked; also: PEG10K at B2) [MIU-68]
% Insulin Activity IR-A [1]: 0.4%
% Insulin Activity IR-B [2]: 0.1%
% Insulin Activity IGF-1 R (IGF-1 receptor): <0.1%

From patent US9593156B2 (priority 2012, dated 2017)
